Test system: HT29 cells
Assay: Inhibition of cell necrosis (CCK8 method), induced programmed necrosis of HT29 cells
Format: cell-based
Conditions: Homo sapiens, HT-29; rescue from necrosis induced by TNF-α 20 ng/mL, AT-406 1 μM, Z-VAD-FMK 20 μM; 16-20 hours; CCK-8, OD 450 nm
Outline: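 HT29 cells in McCOY's 5A with 10% FBS were pre-treated for 30 min with compound (9 fourfold steps, 25000 to 0.38 nM final, 0.25% DMSO). Necrosis was then induced with TNF-α 20 ng/mL, AT-406 1 μM and Z-VAD-FMK 20 μM for 16-20 h. Viability was read by CCK-8 OD450, normalized between uninduced and induced wells, and IC50 was curve-fitted.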

| SMILES | IC50 [nM] |
| --- | --- |
| O=C(Nc1cc(-c2ccccc2C2CC2)ccn1)c1nnc(Cc2ccccc2)[nH]1 [Example 8, 5-benzyl-N-(4-(2-cyclopropylphenyl)pyridin-2-yl)-4H-1,2,4-triazole-3-carboxamide] | 1000 to 10000 |
| COCCCOc1ccc(C(F)(F)F)c(-c2ccnc(NC(=O)c3nnc(CC4CCCC4)[nH]3)c2)c1 [Example 297, 5-(cyclopentylmethyl)-N-(4-(5-(3-methoxypropoxy)-2-(trifluoromethyl)phenyl)pyridin-2-yl)-4H-1,2,4-triazole-3-carboxamide] | ≤ 100 |
| COc1ccc(OC(C)C)cc1-c1ccnc(NC(=O)c2nnc(Cc3ccccc3)[nH]2)c1 [Example 112, 5-benzyl-N-(4-(5-isopropoxy-2-methoxyphenyl)pyridin-2-yl)-4H-1,2,4-triazole-3-carboxamide] | 1000 to 10000 |
| O=C(Nc1cc(-c2cc(OCC3CCOCC3)ccc2C(F)(F)F)ncn1)c1nnc(CC2CCCC2)[nH]1 [Example 456, 5-(cyclopentylmethyl)-N-(6-(5-((tetrahydro-2H-pyran-4-yl)methoxy)-2-(trifluoromethyl)phenyl)pyrimidin-4-yl)-4H-1,2,4-triazole-3-carboxamide] | ≤ 100 |
| Cc1ccc(OCCCC(C)(C)O)cc1-c1ccnc(NC(=O)c2nnc(CC3CCC(F)(F)CC3)[nH]2)c1 [Example 178, 5-((4,4-difluorocyclohexyl)methyl)-N-(4-(5-((4-hydroxy-4-methylpentyl)oxy)-2-methylphenyl)pyridin-2-yl)-4H-1,2,4-triazole-3-carboxamide] | ≤ 100 |
| CC(C)(O)CCCOc1ccc(Cl)c(-c2cc(NC(=O)c3nnc(CC4CCCCC4)[nH]3)ncn2)c1 [Example 465, 5-(cyclohexylmethyl)-N-(6-(2-chloro-5-((4-hydroxy-4-methylpentyl)oxy)phenyl)pyrimidin-4-yl)-4H-1,2,4-triazole-3-carboxamide] | ≤ 100 |
| COc1ccc(Cc2nnc(C(=O)Nc3cc(-c4cc(OCCCC(C)(C)O)ccc4C)ccn3)[nH]2)cc1 [Example 190, 5-(4-methoxybenzyl)-N-(4-(5-((4-hydroxy-4-methylpentyl)oxy)-2-methylphenyl)pyridin-2-yl)-4H-1,2,4-triazole-3-carboxamide] | 100 to 1000 |
| CC(C)(O)CCCCOc1ccc(Cl)c(-c2ccnc(NC(=O)c3nnc(CC4CCCCC4)[nH]3)c2)c1 [Example 370, N-(4-(2-chloro-5-((5-hydroxyl-5-methylhexyl)oxy)phenyl)pyridin-2-yl)-5-(cyclohexylmethyl)-4H-1,2,4-triazole-3-carboxamide] | ≤ 100 |
| Cc1ccc(C2CC2)cc1-c1ccnc(NC(=O)c2nnc(Cc3ccccc3)[nH]2)c1 [Example 45, 5-benzyl-N-(4-(5-cyclopropyl-2-methylphenyl)pyridin-2-yl)-4H-1,2,4-triazole-3-carboxamide] | 100 to 1000 |
| O=C(Nc1cc(-c2cc(OCCC3CCOCC3)ccc2C(F)(F)F)ncn1)c1nnc(CC2CCCCC2)[nH]1 [Example 461, 5-(cyclohexylmethyl)-N-(6-(5-(2-(tetrahydro-2H-pyran-4-yl)ethoxy)-2-(trifluoromethyl)phenyl)pyrimidin-4-yl)-4H-1,2,4-triazole-3-carboxamide] | ≤ 100 |
| CCC(O)(CC)CCCOc1ccc(C(F)(F)F)c(-c2ccnc(NC(=O)c3nnc(CC4CCCCC4)[nH]3)c2)c1 [Example 263, 5-(cyclohexylmethyl)-N-(4-(5-((4-ethyl-4-hydroxyhexyl)oxy)-2-(trifluoromethyl)phenyl)pyridin-2-yl)-4H-1,2,4-triazole-3-carboxamide] | ≤ 100 |
| CC(C)(O)CCCOc1ccc(F)c(-c2cc(NC(=O)c3nnc(CC4CCCCC4)[nH]3)ncc2F)c1 [Example 319, 5-(cyclohexylmethyl)-N-(5-fluoro-4-(2-fluoro-5-((4-hydroxy-4-methylpentyl)oxy)phenyl)pyridin-2-yl)-4H-1,2,4-triazole-3-carboxamide] | ≤ 100 |
| Cc1ccc(OC2CCC2)cc1-c1ccnc(NC(=O)c2nnc(Cc3ccccc3)[nH]2)c1 [Example 156, 5-benzyl-N-(4-(5-cyclobutoxy-2-methylphenyl)pyridin-2-yl)-4H-1,2,4-triazole-3-carboxamide] | 100 to 1000 |
| CCOCCN(C)c1ccc(C)c(-c2ccnc(NC(=O)c3nnc(Cc4ccccc4)[nH]3)c2)c1 [Example 56, 5-benzyl-N-(4-(5-((2-ethoxyethyl)(methyl)amino)-2-methylphenyl)pyridin-2-yl)-4H-1,2,4-triazole-3-carboxamide] | 100 to 1000 |
| CC(C)(O)CCCCOc1ccc(C(F)(F)F)c(-c2ccnc(NC(=O)c3nnc(CC4CCCCC4)[nH]3)c2)c1 [Example 271, 5-(cyclohexylmethyl)-N-(4-(5-((5-hydroxyl-5-methylhexyl)oxy)-2-(trifluoromethyl)phenyl)pyridin-2-yl)-4H-1,2,4-triazole-3-carboxamide] | ≤ 100 |
| COc1ccc(OC)c(-c2ccnc(NC(=O)c3nnc(Cc4ccccc4)[nH]3)c2)c1 [Example 18, 5-benzyl-N-(4-(2,5-dimethoxyphenyl)pyridin-2-yl)-4H-1,2,4-triazole-3-carboxamide] | 1000 to 10000 |
| O=C(Nc1cncc(-c2ccccc2Cl)c1)c1nnc(Cc2ccccc2)[nH]1 [Example 30, 5-benzyl-N-(5-(2-chlorophenyl)pyridin-3-yl)-4H-1,2,4-triazole-3-carboxamide] | > 10000 |

| SMILES | IC50 [nM] |
| --- | --- |
| O=C(Nc1cc(-c2cccc3c2CCC3)ccn1)c1nnc(Cc2ccccc2)[nH]1 [Example 39, 5-benzyl-N-(4-(2,3-dihydro-1H-inden-4-yl)pyridin-2-yl)-4H-1,2,4-triazole-3-carboxamide] | 1000 to 10000 |
| CCOc1ccc(C)c(-c2ccnc(NC(=O)c3nnc(Cc4ccccc4)[nH]3)c2)c1 [Example 108, 5-benzyl-N-(4-(5-ethoxy-2-methylphenyl)pyridin-2-yl)-4H-1,2,4-triazole-3-carboxamide] | 1000 to 10000 |
| Cc1ccc(OCCN2CCCCC2)cc1-c1ccnc(NC(=O)c2nnc(Cc3cc(F)cc(F)c3)[nH]2)c1 [Example 232, 5-(3,5-difluorobenzyl)-N-(4-(2-methyl-5-(2-(piperidin-1-yl)ethoxy)phenyl)pyridin-2-yl)-4H-1,2,4-triazole-3-carboxamide] | 100 to 1000 |
| CCc1ccc(OC)c(-c2ccnc(NC(=O)c3nnc(Cc4ccccc4)[nH]3)c2)c1 [Example 104, 5-benzyl-N-(4-(5-ethyl-2-methoxyphenyl)pyridin-2-yl)-4H-1,2,4-triazole-3-carboxamide] | 1000 to 10000 |
| CC(C)(O)CCCOc1ccc(F)c(-c2cc(NC(=O)c3nnc(CC4CCCCC4)[nH]3)ncc2Cl)c1 [Example 321, N-(5-chloro-4-(2-fluoro-5-((4-hydroxy-4-methylpentyl)oxy)phenyl)pyridin-2-yl)-5-(cyclohexylmethyl)-4H-1,2,4-triazole-3-carboxamide] | 100 to 1000 |
| O=C(Nc1cc(-c2cccc3c2OCO3)ccn1)c1nnc(Cc2ccccc2)[nH]1 [Example 41, N-(4-(benzo[d][1,3]dioxol-4-yl)pyridin-2-yl)-5-benzyl-4H-1,2,4-triazole-3-carboxamide] | > 10000 |
| O=C(Nc1cc(-c2cc(OCC3CCOCC3)ccc2Cl)c(Cl)cn1)c1nnc(CC2CCCCC2)[nH]1 [Example 425, N-(5-chloro-4-(2-chloro-5-((tetrahydro-2H-pyran-4-yl)methoxy)phenyl)pyridin-2-yl)-5-(cyclohexylmethyl)-4H-1,2,4-triazole-3-carboxamide] | 100 to 1000 |
| Cc1c(OCCO)cccc1-c1ccnc(NC(=O)c2nnc(Cc3ccccc3)[nH]2)c1 [Example 95, 5-benzyl-N-(4-(3-(2-hydroxyethoxy)-2-methylphenyl)pyridin-2-yl)-4H-1,2,4-triazole-3-carboxamide] | 100 to 1000 |
| COc1ccc(F)cc1-c1ccnc(NC(=O)c2nnc(Cc3ccccc3)[nH]2)c1 [Example 14, 5-benzyl-N-(4-(5-fluoro-2-methoxyphenyl)pyridin-2-yl)-4H-1,2,4-triazole-3-carboxamide] | 1000 to 10000 |
| CC(C)Oc1ncccc1-c1ccnc(NC(=O)c2nnc(Cc3ccccc3)[nH]2)c1 [Example 23, 5-benzyl-N-(2-isopropyloxy-[3,4′-bipyridin]-2′-yl)-4H-1,2,4-triazole-3-carboxamide] | > 10000 |
| Cc1c(OCCCO)cccc1-c1ccnc(NC(=O)c2nnc(Cc3ccccc3)[nH]2)c1 [Example 97, 5-benzyl-N-(4-(3-(3-hydroxylpropoxy)-2-methylphenyl)pyridin-2-yl)-4H-1,2,4-triazole-3-carboxamide] | 100 to 1000 |
| CCOc1ccccc1-c1ccnc(NC(=O)c2nnc(Cc3ccccc3)[nH]2)c1 [Example 4, 5-benzyl-N-(4-(2-ethoxyphenyl)pyridin-2-yl)-4H-1,2,4-triazole-3-carboxamide] | 1000 to 10000 |
| Cc1ccc(OCCCC(C)(C)O)cc1-c1ccnc(NC(=O)c2nnc(Cc3cccc(F)c3)[nH]2)c1 [Example 184, 5-(3-fluorobenzyl)-N-(4-(5-((4-hydroxy-4-methylpentyl)oxy)-2-methylphenyl)pyridin-2-yl)-4H-1,2,4-triazole-3-carboxamide] | ≤ 100 |
| Cc1ccc(OCC2(O)CC2)cc1-c1ccnc(NC(=O)c2nnc(Cc3ccccc3)[nH]2)c1 [Example 159, 5-benzyl-N-(4-(5-((1-hydroxycyclopropyl)methoxy)-2-methylphenyl)pyridin-2-yl)-4H-1,2,4-triazole-3-carboxamide] | ≤ 100 |
| Cc1ccc(OCCCC(C)(C)O)cc1-c1cc(NC(=O)c2nnc(Cc3cccc(F)c3)[nH]2)ncn1 [Example 434, 5-(3-fluorobenzyl)-N-(6-(5-((4-hydroxy-4-methylpentyl)oxy)-2-methylphenyl)pyrimidin-4-yl)-4H-1,2,4-triazole-3-carboxamide] | ≤ 100 |
| CC(C)Oc1ccccc1-c1ccnc(NC(=O)c2nnc(Cc3ccccc3)[nH]2)c1 [Example 5, 5-benzyl-N-(4-(2-isopropyloxyphenyl)pyridin-2-yl)-4H-1,2,4-triazole-3-carboxamide] | > 10000 |
